Assay results taken from patent publication US20080318987A1, “METHODS FOR MODULATING BONE FORMATION AND MINERALIZATION” (priority 2007, published 2008).

Tests used:
WWP1 = target: T1, WWP1 (Mus musculus, UniProt Q8BZZ3); test: OSE2 (osteocalcin) luciferase reporter assay, primary screen; format: cell-based, murine
T1 construct: The LKO.1 lentiviral vectors expressing RNAi against murine WWP1; endogenous in cells; host or cells: C3H10T1/2 (murine mesenchymal stem cell line)
Experimental: A cell-based reporter assay was modified for use as a primary screen. It is based on the inhibition by WWPI of Runx2 activation of a target promoter sequence from the osteocalcin gene. The murine mesenchymal stem cell line, C3H10T1/2 was maintained in DMEM+10% FBS. Cells were seeded overnight in a 12-wlel dish at 8×10^4 cells/well and transfected with the multimerized osteocalcin (OSE) luciferase (6×OSE2) reporter gene plasmid and combinations of expression constructs, as indicated, by Effectene (Qiagen). Total amounts of transfected DNA were kept constant by supplementing with control empty expression vector plasmids. All cells were cotransfected with pRL-TK (Promega) to control for transfection efficience. Forty-eight hours after transfection, cells were harvested and lysed in 1×Passive Lysis Buffer (Promega) and luciferase assays performed using the Dual-Luciferase Reporter Assay System (Promega).
Runx2 transactivation function in luciferase reporter assays was enhanced in WWPli cells. The LKO.1 lentiviral vectors expressing RNAi against murine WWP1, and GFP were cotransfected along with D8.9 and VSV-G plasmids into […] cells utilizing Effectene (Qiagen).

[1] = tested on: primary human mesenchymal stem cells (MSCs); test: Human osteoblast differentiation in vitro (mineralization); format: cell-based; conditions: compound included in the MSC osteoblast differentiation culture system
Experimental: This cell-based assay uses a 96-well format in which primary human mesenchymal stem cells (MSCs) are differentiated into osteoblasts following an established protocol that results in a high rate of differentiation. To induce osteoblast differentiation, MSC are seeded at a low density (3.1×10^3 cells per cm2) and cultured in media containing β-glycerolphosphate and ascorbic acid for fourteen days. For testing of candidate compounds, MSCs will be differentiated in the presence of the compounds for the duration of the 14-day culture period. Osteoblast differentiation is then assayed via a simple colorometric readout that reflects the levels of cellular alkaline phosphates (ALP), an enzyme present in differentiating osteoblasts but absent in MSCs. ALP levels are then normalized to cell number, which is measured by utilizing the Alamar blue assay. Mineralization can be assessed by staining with xylenol orange. The screen and the 96-well format will allow multiple compounds to be tested at various concentrations. A substantial number of compounds may be identified that are active at a nanomolar concentration.

T1 sequence (Q8BZZ3 whole entry): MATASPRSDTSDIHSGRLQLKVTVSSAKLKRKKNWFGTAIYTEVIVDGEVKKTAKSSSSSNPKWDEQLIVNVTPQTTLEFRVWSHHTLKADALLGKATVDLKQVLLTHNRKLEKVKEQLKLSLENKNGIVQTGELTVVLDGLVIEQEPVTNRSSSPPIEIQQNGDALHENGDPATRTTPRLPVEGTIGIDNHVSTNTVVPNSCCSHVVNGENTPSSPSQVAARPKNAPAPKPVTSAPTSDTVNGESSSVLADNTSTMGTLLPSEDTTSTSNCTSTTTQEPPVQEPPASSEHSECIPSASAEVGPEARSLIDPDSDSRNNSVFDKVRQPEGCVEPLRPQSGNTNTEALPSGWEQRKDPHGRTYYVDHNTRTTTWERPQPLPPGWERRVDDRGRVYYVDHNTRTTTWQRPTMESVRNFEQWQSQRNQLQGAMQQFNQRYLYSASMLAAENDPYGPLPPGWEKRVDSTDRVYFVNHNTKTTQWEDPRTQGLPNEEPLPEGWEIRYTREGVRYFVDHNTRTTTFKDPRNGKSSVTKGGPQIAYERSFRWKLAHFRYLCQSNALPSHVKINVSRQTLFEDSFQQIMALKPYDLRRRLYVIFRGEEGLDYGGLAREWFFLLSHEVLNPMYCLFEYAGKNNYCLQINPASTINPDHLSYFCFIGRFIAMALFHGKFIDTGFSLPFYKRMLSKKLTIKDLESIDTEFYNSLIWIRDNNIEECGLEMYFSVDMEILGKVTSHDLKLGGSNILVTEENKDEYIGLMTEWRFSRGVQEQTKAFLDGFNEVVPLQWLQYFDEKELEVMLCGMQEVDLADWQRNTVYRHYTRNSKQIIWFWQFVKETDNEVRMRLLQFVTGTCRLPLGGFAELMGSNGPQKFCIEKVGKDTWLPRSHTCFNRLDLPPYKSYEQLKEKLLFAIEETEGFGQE

O=c1[nH]cc(CS(=O)(=O)Cc2c[nH]c(=O)[nH]c2=O)c(=O)[nH]1 [5,5′-(sulfonyldimethylene)diuracil]
Runx2 transactivation in the OSE2 reporter assay (WWP1; C3H10T1/2 cells, 6xOSE2 luciferase reporter): increase Runx2 transactivation
WWP1 inhibition inferred from the OSE2 reporter assay (WWP1; concluded from increased Runx2 transactivation): inhibit WWP1
formation of mineralized nodules [1]: substantially increased formation of mineralized nodules
